# Test results reported in ChEMBL document CHEMBL3351865, “N-aryl-2-aminobenzimidazoles: novel, efficacious, antimalarial lead compounds” (J Med Chem, 2014).
# Columns and labels:
# [1] = in vitro; conditions: human, THP-1 cells
# Description: Selectivity index, ratio of IC50 for human THP1 cells to IC50 for Plasmodium falciparum
# [2] = test system: Plasmodium falciparum; experiment: microbe, parasite or virus in culture; conditions: NF54
# Description: Antiplasmodial activity against Plasmodium falciparum NF54 by SYBR-green based assay
# [3] = test system: Plasmodium falciparum; experiment: microbe, parasite or virus in culture; conditions: K1
# Description: Antiplasmodial activity against Plasmodium falciparum K1 by SYBR-green based assay
# [4] = molecular target: Voltage-gated inwardly rectifying potassium channel KCNH2 (Homo sapiens, UniProt Q12809)
# Voltage-gated inwardly rectifying potassium channel KCNH2, sequence (Q12809 whole entry): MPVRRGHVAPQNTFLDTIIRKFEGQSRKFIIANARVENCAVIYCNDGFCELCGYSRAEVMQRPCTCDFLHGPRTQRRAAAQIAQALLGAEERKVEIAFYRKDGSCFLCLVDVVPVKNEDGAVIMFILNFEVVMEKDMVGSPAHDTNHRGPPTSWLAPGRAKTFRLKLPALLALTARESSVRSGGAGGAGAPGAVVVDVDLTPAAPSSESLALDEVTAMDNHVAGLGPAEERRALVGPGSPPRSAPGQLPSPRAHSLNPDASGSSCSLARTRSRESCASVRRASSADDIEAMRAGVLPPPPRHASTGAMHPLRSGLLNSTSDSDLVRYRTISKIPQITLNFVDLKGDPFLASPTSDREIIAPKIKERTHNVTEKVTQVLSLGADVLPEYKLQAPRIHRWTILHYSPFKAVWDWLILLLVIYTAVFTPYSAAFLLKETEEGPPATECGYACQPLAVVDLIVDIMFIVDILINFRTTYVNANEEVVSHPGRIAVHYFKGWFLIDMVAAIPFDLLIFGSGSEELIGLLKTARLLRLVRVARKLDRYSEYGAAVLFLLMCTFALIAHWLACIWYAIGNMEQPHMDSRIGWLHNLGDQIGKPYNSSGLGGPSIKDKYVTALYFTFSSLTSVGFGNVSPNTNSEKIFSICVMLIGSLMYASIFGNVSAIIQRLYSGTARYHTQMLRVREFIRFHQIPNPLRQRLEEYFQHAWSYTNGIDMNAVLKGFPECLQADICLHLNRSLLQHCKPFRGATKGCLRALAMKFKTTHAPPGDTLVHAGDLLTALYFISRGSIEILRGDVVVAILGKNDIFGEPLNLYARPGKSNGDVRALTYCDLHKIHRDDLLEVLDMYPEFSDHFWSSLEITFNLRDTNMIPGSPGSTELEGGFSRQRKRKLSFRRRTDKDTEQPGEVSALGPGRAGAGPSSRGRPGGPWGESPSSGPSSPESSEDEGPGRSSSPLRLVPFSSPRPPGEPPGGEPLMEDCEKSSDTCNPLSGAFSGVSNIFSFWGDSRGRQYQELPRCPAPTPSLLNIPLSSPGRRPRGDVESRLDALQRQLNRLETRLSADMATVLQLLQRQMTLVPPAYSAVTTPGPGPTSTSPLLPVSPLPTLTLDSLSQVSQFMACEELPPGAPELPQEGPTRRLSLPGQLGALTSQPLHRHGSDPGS
# [5] = physchem; conditions: buffer
# Description: Aqueous solubility of the compound
# [6] = physchem; conditions: buffer, pH 7.4
# Description: Lipophilicity, logD of the compound at pH 7.4
# [7] = in vitro; conditions: human, plasma
# Description: Unbound fraction in human plasma
# [8] = in vitro; conditions: human, microsomes
# Description: Clearance in human microsomes
# [9] = in vitro; conditions: human, hepatocytes
# Description: Clearance in human hepatocytes assessed per million cells
# [10] = test system: Plasmodium falciparum; experiment: microbe, parasite or virus in culture; conditions: 7G8
# Description: Antiplasmodial activity against Plasmodium falciparum 7G8 harboring mutations conferring drug-resistance by SYBR-green based assay
# [11] = test system: Plasmodium falciparum; experiment: microbe, parasite or virus in culture; conditions: W2
# Description: Antiplasmodial activity against Plasmodium falciparum W2 harboring mutations conferring drug-resistance by SYBR-green based assay
# [12] = test system: Plasmodium falciparum; experiment: microbe, parasite or virus in culture; conditions: SB1-A6
# Description: Antiplasmodial activity against Plasmodium falciparum SB1-A6 harboring mutations conferring drug-resistance by SYBR-green based assay
# [13] = test system: Plasmodium falciparum; experiment: microbe, parasite or virus in culture; conditions: Dd2
# Description: Antiplasmodial activity against Plasmodium falciparum Dd2 harboring mutations conferring drug-resistance by SYBR-green based assay
# [14] = test system: Plasmodium berghei; experiment: Antiplasmodial activity against Plasmodium berghei infected in mouse assessed as reduction in parasitemia at 100 mg/kg treated with four once daily doses; assay type: functional
# [15] = test system: Plasmodium berghei; experiment: Antiplasmodial activity against Plasmodium berghei infected in mouse assessed as increase in mean survival days at 100 mg/kg treated with four once daily doses; assay type: functional
# [16] = Half life in Plasmodium berghei infected mouse at 100 mg/kg treated with four once daily doses; assay type: ADME, organism-based; parameters: dose 100 mg/kg; conditions: in vivo
# [17] = Cmax in Plasmodium berghei infected mouse at 100 mg/kg treated with four once daily doses; assay type: ADME, organism-based; parameters: dose 100 mg/kg; conditions: in vivo
# [18] = AUClast in Plasmodium berghei infected mouse at 100 mg/kg treated with four once daily doses; assay type: ADME, organism-based; parameters: time 0 - last, dose 100 mg/kg; conditions: plasma
# [19] = test system: Plasmodium berghei; conditions: dose 30 mg/kg
# Description: Antiplasmodial activity against Plasmodium berghei infected in mouse assessed as increase in mean survival days at 30 mg/kg treated with four once daily doses
# [20] = test system: Plasmodium berghei; conditions: dose 50 mg/kg
# Description: Antiplasmodial activity against Plasmodium berghei infected in mouse assessed as increase in mean survival days at 50 mg/kg treated with four once daily doses
# [21] = in vivo; conditions: mouse, 30 mg/kg
# Description: Half life in Plasmodium berghei infected mouse at 30 mg/kg treated with four once daily doses
# [22] = in vivo; conditions: mouse, 30 mg/kg; remark: listed apart in the source
# [23] = in vivo; conditions: mouse, plasma, 30 mg/kg
# Description: AUClast in Plasmodium berghei infected mouse at 30 mg/kg treated with four once daily doses
# [24] = in vivo; conditions: mouse, 50 mg/kg
# Description: Half life in Plasmodium berghei infected mouse at 50 mg/kg treated with four once daily doses
# [25] = in vivo; conditions: mouse, 50 mg/kg; remark: listed apart in the source
# [26] = in vivo; conditions: mouse, plasma, 50 mg/kg
# Description: AUClast in Plasmodium berghei infected mouse at 50 mg/kg treated with four once daily doses
# [27] = test system: Plasmodium berghei; experiment: animal or person; conditions: in Mus musculus, read-out: INH
# Description: Antiplasmodial activity against Plasmodium berghei infected in mouse assessed as reduction in parasitemia at 30 mg/kg treated with four once daily doses
# [28] = test system: Plasmodium berghei; experiment: animal or person; conditions: in Mus musculus, read-out: INH; remark: listed apart in the source
# Description: Antiplasmodial activity against Plasmodium berghei infected in mouse assessed as reduction in parasitemia at 50 mg/kg treated with four once daily doses
# [29] = in vivo; conditions: rat, iv, 1 mg/kg
# Description: Half life in rat at 1 mg/kg, iv
# [30] = in vivo; conditions: rat, plasma, iv, 1 mg/kg
# [31] = in vivo; conditions: rat, iv, 1 mg/kg; remark: listed apart in the source
# Description: Clearance in rat at 1 mg/kg, iv
# [32] = in vivo; conditions: rat, iv, 1 mg/kg; remark: listed apart in the source
# Description: Volume of distribution at steady state in rat at 1 mg/kg, iv
# [33] = in vivo; conditions: rat, po, 5 mg/kg
# Description: Half life in rat at 5 mg/kg, po
# [34] = in vivo; conditions: rat, po, 5 mg/kg; remark: listed apart in the source
# [35] = in vivo; conditions: rat, po, 5 mg/kg; remark: listed apart in the source
structure (smiles),measurement,setting,value
CN1CCN(c2ccc3nc(Nc4ccc(Br)cc4)[nH]c3c2)CC1,selectivity ratio,[1],> 1190
same,IC50,[2],210 nM
same,IC50,[3],390 nM
CN1CCN(c2ccc3nc(Nc4ccccn4)[nH]c3c2)CC1,selectivity ratio,[1],> 86
same,IC50,[2],> 500 nM
same,IC50,[3],> 500 nM
Cc1ccc(Nc2nc3ccc(N4CCN(C)CC4)cc3[nH]2)nc1,IC50,[4],12700 nM
same,selectivity ratio,[1],> 385
same,solubility,[5],1170 µM
same,logD,[6],2.2
same,fraction unbound,[7],0.183
same,microsomal CLint,[8],4.8 µL/min/mg
same,hepatocyte CLint,[9],19.5 µL/min/1e6 cells
same,IC50,[2],130 nM
same,IC50,[3],270 nM
same,IC50,[10],307 nM
same,IC50,[11],437 nM
same,IC50,[12],86.2 nM
same,IC50,[13],201 nM
CN1CCN(Cc2ccc3nc(Nc4ccc(C(F)(F)F)cn4)[nH]c3c2)CC1,solubility,[5],> 1000 µM
same,logD,[6],3.2
same,fraction unbound,[7],0.275
same,microsomal CLint,[8],< 4 µL/min/mg
same,hepatocyte CLint,[9],7.5 µL/min/1e6 cells
same,IC50,[2],93 nM
same,IC50,[3],166 nM
OCCN1CCN(c2ccc3nc(Nc4ccc(C(F)(F)F)cn4)[nH]c3c2)CC1,selectivity ratio,[1],> 1110
same,IC50,[2],130 nM
same,IC50,[3],210 nM
CN1CCN(c2ccc3nc(Nc4ccc(C(F)(F)F)cn4)[nH]c3c2)CC1,inhibition in vivo at 100 mg/kg,[14],99.9%
same,MSD,[15],24 days
same,half-life,[16],4.9 h
same,Cmax,[17],6.1 µM
same,AUC(0-t),[18],41.6 µM·h
same,MSD,[19],10 days
same,MSD,[20],15 days
same,half-life,[21],3.7 h
same,Cmax,[22],3.3 µM
same,AUC(0-t),[23],19.2 µM·h
same,half-life,[24],5.4 h
same,Cmax,[25],5 µM
same,AUC(0-t),[26],33.7 µM·h
same,selectivity ratio,[1],890
same,inhibition in vivo at 30 mg/kg,[27],81.3%
same,inhibition in vivo at 50 mg/kg,[28],99.9%
same,IC50,[2],82 nM
same,IC50,[3],120 nM
CN1CCN(c2ccc3nc(Nc4ccc(C(F)(F)F)nc4)[nH]c3c2)CC1,selectivity ratio,[1],> 500
same,IC50,[2],> 500 nM
same,IC50,[3],> 500 nM
CN1CCN(c2cc3[nH]c(Nc4ccc(C(F)(F)F)cn4)nc3cn2)CC1,selectivity ratio,[1],1030
same,IC50,[2],29 nM
same,IC50,[3],54 nM
CN1CCN(c2cc(Cl)c3nc(Nc4ccc(Br)cn4)[nH]c3c2)CC1,solubility,[5],> 1000 µM
same,logD,[6],3
same,fraction unbound,[7],0.301
same,microsomal CLint,[8],< 4 µL/min/mg
same,hepatocyte CLint,[9],9 µL/min/1e6 cells
same,IC50,[2],110 nM
same,IC50,[3],160 nM
CN1CCN(c2nc3[nH]c(Nc4ccc(Br)cn4)nc3cc2F)CC1,selectivity ratio,[1],> 100
same,IC50,[2],> 500 nM
same,IC50,[3],> 500 nM
Brc1ccc(Nc2nc3ccc(N4CCNCC4)cc3[nH]2)nc1,MSD,[20],11 days
same,half-life,[24],4.5 h
same,Cmax,[25],25.5 µM
same,AUC(0-t),[26],202 µM·h
same,selectivity ratio,[1],961
same,inhibition in vivo at 50 mg/kg,[28],99.9%
same,IC50,[2],39 nM
same,IC50,[3],278 nM
Brc1ccc(Nc2nc3ccc(N4CCOCC4)cc3[nH]2)nc1,selectivity ratio,[1],> 100
same,IC50,[2],> 500 nM
same,IC50,[3],> 500 nM
CN1CCC(c2ccc3nc(Nc4ccc(C(F)(F)F)cn4)[nH]c3c2)CC1,MSD,[19],25 days
same,MSD,[20],30 days
same,half-life,[29],14.9 h
same,AUC,[30],6 µM·h
same,clearance,[31],14.9 mL/min/kg
same,Vd,[32],16.9 L/kg
same,half-life,[33],19.2 h
same,Cmax,[34],0.5 µM
same,half-life,[21],9.3 h
same,Cmax,[22],5.2 µM
same,AUC(0-t),[23],54 µM·h
same,half-life,[24],18.5 h
same,Cmax,[25],8.8 µM
same,AUC(0-t),[26],131 µM·h
same,bioavailability,[35],79%
same,solubility,[5],121 µM
same,logD,[6],3
same,fraction unbound,[7],0.134
same,microsomal CLint,[8],< 4 µL/min/mg
same,hepatocyte CLint,[9],4.7 µL/min/1e6 cells
same,inhibition in vivo at 30 mg/kg,[27],98.9%
same,inhibition in vivo at 50 mg/kg,[28],99.8%
same,IC50,[2],36 nM
same,IC50,[3],59 nM
CN1CCC(c2ccc3nc(Nc4ccc(C(F)(F)F)cn4)[nH]c3c2)C1 (centres undefined),IC50,[2],53 nM
same,IC50,[3],85 nM
FC(F)(F)c1ccc(Nc2nc3ccc(N4CCN5CCCC5C4)cc3[nH]2)nc1 (centres undefined),selectivity ratio,[1],357
same,IC50,[2],56 nM
same,IC50,[3],119 nM
CN1C2CCC1CC(c1ccc3nc(Nc4ccc(C(F)(F)F)cn4)[nH]c3c1)C2 (centres undefined),selectivity ratio,[1],308
same,IC50,[2],94 nM
same,IC50,[3],200 nM
CN1CCN(C(=O)c2ccc3nc(Nc4ccc(Br)cn4)[nH]c3c2)CC1,selectivity ratio,[1],548
same,IC50,[2],450 nM
same,IC50,[3],> 500 nM
Cc1nc(Nc2nc3ccc(N4CCN(C)CC4)cc3[nH]2)ccc1F,selectivity ratio,[1],> 1050
same,IC50,[2],48 nM
same,IC50,[3],110 nM
same,IC50,[10],98.8 nM
same,IC50,[11],106 nM
Cc1nc(Nc2nc3cnc(N4CCN(C)CC4)cc3[nH]2)ccc1Cl,selectivity ratio,[1],500
same,IC50,[2],44 nM
same,IC50,[3],110 nM
CN1CCC(c2ccc3nc(Nc4ncc(C(F)(F)F)cc4Cl)[nH]c3c2)CC1,IC50,[2],80 nM
same,IC50,[3],130 nM
Cc1nc(Nc2nc3cnc(N4CCN(C)CC4)cc3[nH]2)cc(C2CC2)c1F,solubility,[5],5.6 µM
same,logD,[6],3.9
same,fraction unbound,[7],0.051
same,microsomal CLint,[8],21.8 µL/min/mg
same,hepatocyte CLint,[9],11.3 µL/min/1e6 cells
same,IC50,[2],17 nM
same,IC50,[3],26 nM
Cc1nc(Nc2nc3ccc(C4CCN(C)CC4)cc3[nH]2)cc(C2CC2)c1F,selectivity ratio,[1],692
same,IC50,[2],13 nM
same,IC50,[3],30 nM
C[C@@H]1CC[C@H]2[C@@H](C)C(=O)O[C@@H]3O[C@@]4(C)CC[C@@H]1[C@]32OO4 [ARTEMISININ],IC50,[2],7.1 nM
same,IC50,[10],1.3 nM
same,IC50,[11],6.5 nM
same,IC50,[12],16.6 nM
same,IC50,[13],10.3 nM
O=C1C(O)=C([C@H]2CC[C@H](c3ccc(Cl)cc3)CC2)C(=O)c2ccccc21 [ATOVAQUONE],IC50,[3],2.3 nM
same,IC50,[10],2.3 nM
same,IC50,[12],> 2000 nM
same,IC50,[13],2 nM
CCc1nc(N)nc(N)c1-c1ccc(Cl)cc1 [PYRIMETHAMINE],IC50,[12],10.9 nM
